Measurements from EPA's CvTdb concentration-time database.
One block for each compound: values may come before it.

Legend:
Rat [1] = assay: concentration in brain after dosing; conditions: 1848 h; dosed: Perfluorodecanoic acid; 10 mg/kg; oral; Female; Harlan Sprague Dawley
Rat [2] = assay: concentration in kidney after dosing; conditions: 24 h; dosed: Perfluorodecanoic acid; 10 mg/kg; oral; Female; Harlan Sprague Dawley
Rat [3] = assay: concentration in plasma after dosing; conditions: dosed: Perfluorodecanoic acid, 2 mg/kg, iv, Male, F344
Rat [4] = assay: concentration in plasma after dosing; conditions: 6 h; dosed: Di-n-butyl phthalate; 20 mg/kg; iv; Male; Sprague-Dawley
Rat [5] = assay: concentration in plasma after dosing; conditions: 40 min; dosed: Di-n-butyl phthalate; 20 mg/kg; iv; Male; Sprague-Dawley
Rat [6] = assay: concentration in plasma after dosing; conditions: 20 h; dosed: Di-n-butyl phthalate; 200 mg/kg; oral; Male; Sprague-Dawley
Rat [7] = assay: concentration in plasma after dosing; conditions: 5 min; dosed: dichloroacetic acid; 10 mg/kg; iv; Male; F344
Rat [8] = assay: concentration in plasma after dosing; conditions: 1 h; dosed: Wyeth-14643; 5.0 mg/kg; oral; Male; Sprague-Dawley
Rat [9] = assay: concentration in plasma after dosing; conditions: 2 h; dosed: Wyeth-14643; 2.0 mg/kg; oral; Male; Sprague-Dawley
Rat [10] = assay: concentration in plasma after dosing; conditions: 2 h; dosed: Wyeth-14643; 2.0 mg/kg; iv; Male; Sprague-Dawley
Rat [11] = assay: concentration in liver after dosing; conditions: 1 h; dosed: Bis 2-Chloroethoxy Methane; 20 mg/kg; iv; Male; F344
Rat [12] = assay: concentration in liver after dosing; conditions: 4 h; dosed: Bis 2-Chloroethoxy Methane; 20 mg/kg; iv; Male; F344
Rat [13] = assay: concentration in heart after dosing; conditions: 2 h; dosed: Bis 2-Chloroethoxy Methane; 20 mg/kg; iv; Male; F344
Rat [14] = assay: concentration in heart after dosing; conditions: 10 min; dosed: Bis 2-Chloroethoxy Methane; 20 mg/kg; iv; Male; F344
Rat [15] = assay: concentration in liver after dosing; conditions: 5 h; dosed: Bis 2-Chloroethoxy Methane; 20 mg/kg; iv; Male; F344
Rat [16] = assay: concentration in plasma after dosing; conditions: 3 h; dosed: Bis 2-Chloroethoxy Methane; 40 mg/kg; iv; Male; Harlan Sprague Dawley
Rat [17] = assay: concentration in plasma after dosing; conditions: 3 h; dosed: Bis 2-Chloroethoxy Methane; 20 mg/kg; iv; Male; F344
Rat [18] = assay: concentration in thymus after dosing; conditions: 4 h; dosed: Bis 2-Chloroethoxy Methane; 20 mg/kg; iv; Female; F344
Rat [19] = assay: concentration in thymus after dosing; conditions: 7 h; dosed: Bis 2-Chloroethoxy Methane; 20 mg/kg; iv; Female; F344
Rat [20] = assay: concentration in brain after dosing; conditions: 12 h; dosed: Fluorotelomer alcohol 8+2; 24 mg/kg; oral; Male; Harlan Sprague Dawley
Rat [21] = assay: concentration in liver after dosing; conditions: 6 h; dosed: Fluorotelomer alcohol 8+2; 24 mg/kg; oral; Male; Harlan Sprague Dawley
Rat [22] = assay: concentration in liver after dosing; conditions: 0.5 h; dosed: Fluorotelomer alcohol 8+2; 80 mg/kg; oral; Female; Harlan Sprague Dawley
Rat [23] = assay: concentration in kidney after dosing; conditions: 6 h; dosed: Fluorotelomer alcohol 8+2; 24 mg/kg; oral; Male; Harlan Sprague Dawley
Rat [24] = assay: concentration in heart after dosing; conditions: 8 h; dosed: Thiodiglycolic Acid; 20 mg/kg; iv; Female; Harlan Sprague Dawley
Rat [25] = assay: concentration in liver after dosing; conditions: 4 h; dosed: Thiodiglycolic Acid; 20 mg/kg; iv; Male; Harlan Sprague Dawley
Rat [26] = assay: concentration in liver after dosing; conditions: 1 h; dosed: Thiodiglycolic Acid; 20 mg/kg; iv; Male; Harlan Sprague Dawley
Rat [27] = assay: concentration in liver after dosing; conditions: 10 h; dosed: Thiodiglycolic Acid; 20 mg/kg; iv; Male; F344
Rat [28] = assay: concentration in liver after dosing; conditions: 2 h; dosed: Thiodiglycolic Acid; 20 mg/kg; iv; Male; Harlan Sprague Dawley
Rat [29] = assay: concentration in liver after dosing; conditions: 8 h; dosed: Thiodiglycolic Acid; 20 mg/kg; iv; Female; Harlan Sprague Dawley
Rat [30] = assay: concentration in plasma after dosing; conditions: 3 h; dosed: Thiodiglycolic Acid; 20 mg/kg; iv; Female; Harlan Sprague Dawley
Rat [31] = assay: concentration in thymus after dosing; conditions: 6.667 h; dosed: Thiodiglycolic Acid; 20 mg/kg; iv; Female; Harlan Sprague Dawley
Rat [32] = assay: concentration in plasma after dosing; conditions: 40 min; dosed: Thiodiglycolic Acid; 20 mg/kg; iv; Male; Harlan Sprague Dawley
Rat [33] = assay: concentration in plasma after dosing; conditions: 0.5 h; dosed: Primidone; 80 mg/kg; oral; Female; Harlan Sprague-Dawley
Rat [34] = assay: concentration in plasma after dosing; conditions: 12 h; dosed: Primidone; 130 mg/kg; oral; Male; Harlan Sprague Dawley
Rat [35] = assay: concentration in plasma after dosing; conditions: 6 h; dosed: Primidone; 30 mg/kg; oral; Female; F344
Rat [36] = assay: concentration in plasma after dosing; conditions: 3 h; dosed: Primidone; 80 mg/kg; oral; Female; F344

SMILES: O=C(O)C(F)(F)C(F)(F)C(F)(F)C(F)(F)C(F)(F)C(F)(F)C(F)(F)C(F)(F)C(F)(F)F [Perfluorodecanoic acid]
concentration in brain (Rat [1]): 752 ng/g
concentration in kidney (Rat [2]): 67300 ng/g
concentration in plasma (Rat [3]; 12 h): 4320 ng/mL
concentration in plasma (Rat [3]; 1200 h): 1720 ng/mL

SMILES: CCCCOC(=O)c1ccccc1C(=O)O [Mono-n-butyl phthalate]
concentration in plasma (Rat [4]): 1110 ng/mL
concentration in plasma (Rat [5]): 8270 ng/mL
concentration in plasma (Rat [6]): 1290 ng/mL

SMILES: O=C(O)C(Cl)Cl [dichloroacetic acid]
concentration in plasma (Rat [7]): 12400 ng/mL

concentration in plasma (Rat [8]): 4730 ng/mL
concentration in plasma (Rat [9]): 925 ng/mL
concentration in plasma (Rat [10]): 670 ng/mL
SMILES: Cc1cccc(Nc2cc(Cl)nc(SCC(=O)O)n2)c1C

SMILES: ClCCOCOCCCl [Bis 2-Chloroethoxy Methane]
concentration in liver (Rat [11]): 2070 ng/g
concentration in liver (Rat [12]): 86.1 ng/g
concentration in heart (Rat [13]): 450 ng/g
concentration in heart (Rat [14]): 13200 ng/g
concentration in liver (Rat [15]): 33.4 ng/g
concentration in plasma (Rat [16]): 287 ng/mL
concentration in plasma (Rat [17]): 123 ng/mL
concentration in thymus (Rat [18]): 108 ng/g
concentration in thymus (Rat [19]): 17.7 ng/g

concentration in brain (Rat [20]): 221 ng/g
concentration in liver (Rat [21]): 1220 ng/g
concentration in liver (Rat [22]): 15900 ng/g
concentration in kidney (Rat [23]): 271 ng/g
SMILES: OCCC(F)(F)C(F)(F)C(F)(F)C(F)(F)C(F)(F)C(F)(F)C(F)(F)C(F)(F)F [Fluorotelomer alcohol 8+2]

SMILES: O=C(O)CSCC(=O)O [Thiodiglycolic Acid]
concentration in heart (Rat [24]): 393 ng/g
concentration in liver (Rat [25]): 70900 ng/g
concentration in liver (Rat [26]): 126000 ng/g
concentration in liver (Rat [27]): 630 ng/g
concentration in liver (Rat [28]): 112000 ng/g
concentration in liver (Rat [29]): 60900 ng/g
concentration in plasma (Rat [30]): 510 ng/mL
concentration in thymus (Rat [31]): 245 ng/g
concentration in plasma (Rat [32]): 2000 ng/mL

SMILES: CCC1(c2ccccc2)C(=O)NC(=O)NC1=O [Phenobarbital]
concentration in plasma (Rat [33]): 1480 ng/mL
concentration in plasma (Rat [34]): 2490 ng/mL
concentration in plasma (Rat [35]): 990 ng/mL
concentration in plasma (Rat [36]): 1000 ng/mL
